pEC50: −log10 of the molar value.
Legend:
Influenza A virus = test: Antiviral activity against Influenza A virus (A/Puerto Rico/8/1934(H1N1)) infected in MDCK cells assessed as decrease in virus titer after 48 hrs by MTT assay; format: functional, organism-based
[1] = Cytotoxicity against African green monkey Vero cells assessed as cell viability after 72 hrs by MTT assay; format: cell-based; conditions: chlorocebus sabaeus, read-out: CTD50
[2] = Cytotoxicity against MDCK cells assessed as cell viability after 48 hrs by MTT assay; format: cell-based, Canis lupus familiaris; conditions: dog, read-out: CTD50
[3] = Selectivity index, ratio of CTD50 for MDCK cells to EC50 for Influenza A virus (A/Puerto Rico/8/1934(H1N1)); format: toxicity, cell-based; conditions: dog
Coxsackievirus B4 = test: Antiviral activity against Human coxsackievirus B4 Powers infected in African green monkey Vero cells assessed as decrease in virus titer after 72 hrs by MTT assay; format: functional, organism-based; conditions: Enterovirus B
[4] = Selectivity index, ratio of CTD50 for African green monkey Vero cells to EC50 for Human coxsackievirus B4 Powers; format: toxicity, cell-based

SMILES | pEC50 (Influenza A virus) | CC50 at 72 h [1] | CC50 at 48 h [2] | selectivity ratio [3] | pEC50 (Coxsackievirus B4) | selectivity ratio [4]
Nc1ncnc2c1ncn2[C@H]1C[C@H]2[C@H](CO)[C@@H]1C[C@@H]2Cl | 5.10 | 332 µM | > 1120 µM | > 150 | < 3.95 | 3
CN(C)c1ncnc2c1ncn2[C@H]1C[C@H]2[C@H](CO)[C@@H]1C[C@@H]2Cl | 3.95 | 235 µM | 929 µM | 8 | 4.55 | 9
OC[C@H]1[C@@H]2C[C@H](n3cnc4c(NC5CC5)ncnc43)[C@H]1C[C@@H]2Cl | 5.10 | 247 µM | 1130 µM | 151 | 4.77 | 15
OC[C@H]1[C@@H]2C[C@H](n3cnc4c(NC5CCCC5)ncnc43)[C@H]1C[C@@H]2Cl | 4.82 | 27 µM | 529 µM | 36 | < 4.52 | 1
CCN(CC)CCCNc1ncnc2c1ncn2[C@H]1C[C@H]2[C@H](CO)[C@@H]1C[C@@H]2Cl | < 3.61 | 137 µM | 664 µM | < 3 | < 4.09 | 2
CN1CCN(c2ncnc3c2ncn3[C@H]2C[C@H]3[C@H](CO)[C@@H]2C[C@@H]3Cl)CC1 | 4.60 | 227 µM | 1000 µM | 39 | < 4.06 | 3
OC[C@H]1[C@@H]2C[C@H](n3cnc4c(N5CCOCC5)ncnc43)[C@H]1C[C@@H]2Cl | 4.72 | 97 µM | 997 µM | 54 | < 4.05 | 1
OC[C@H]1[C@@H]2C[C@H](n3cnc4c(NC5CCCCC5)ncnc43)[C@H]1C[C@@H]2Cl | 4.04 | 14 µM | 528 µM | 6 | < 4.96 | 1
CCN(CC)CCNc1ncnc2c1ncn2[C@H]1C[C@H]2[C@H](CO)[C@@H]1C[C@@H]2Cl | 4.70 | 175 µM | 731 µM | 36 | < 4.08 | 2
OC[C@H]1[C@@H]2C[C@H](n3cnc4c(NCCc5ccc(O)cc5)ncnc43)[C@H]1C[C@@H]2Cl | 4.32 | 108 µM | > 795 µM | > 16 | 4.74 | 6
OC[C@@H](Cc1ccccc1)Nc1ncnc2c1ncn2[C@H]1C[C@H]2[C@H](CO)[C@@H]1C[C@@H]2Cl | 3.88 | 197 µM | 410 µM | 3 | 6.00 | 141
OC[C@H]1[C@@H]2C[C@H](n3cnc4c(NCc5cccnc5)ncnc43)[C@H]1C[C@@H]2Cl | 3.91 | 204 µM | 554 µM | 5 | < 4.07 | 2
OC[C@H]1[C@@H]2C[C@H](n3cnc4c(NCc5ccncc5)ncnc43)[C@H]1C[C@@H]2Cl | 3.60 | 166 µM | 712 µM | 3 | < 4.08 | 2
CN1CCN(Nc2ncnc3c2ncn3[C@H]2C[C@H]3[C@H](CO)[C@@H]2C[C@@H]3Cl)CC1 | 4.92 | 255 µM | 840 µM | 73 | < 3.59 | 1
CCN(CC)c1ncnc2c1ncn2[C@H]1C[C@H]2[C@H](CO)[C@@H]1C[C@@H]2Cl | 4.66 | 182 µM | 385 µM | 18 | < 4.03 | 2
OC[C@@H]1[C@@H]2C[C@H](Cl)[C@H]1C[C@@H]2Nc1ncnc2c1ncn2[C@H]1C[C@H]2[C@H](CO)[C@@H]1C[C@@H]2Cl | 5.00 | 213 µM | > 704 µM | > 73 | 4.21 | 3
Cc1cn([C@H]2C[C@H]3[C@H](CO)[C@@H]2C[C@@H]3Cl)c(=O)[nH]c1=O | 3.45 | 57 µM | > 1160 µM | > 3 | < 3.45 | 1
O=c1ccn([C@H]2C[C@H]3[C@H](CO)[C@@H]2C[C@@H]3Cl)c(=O)[nH]1 | 4.19 | 172 µM | > 1210 µM | > 19 | < 3.44 | 1

Reference: ChEMBL document CHEMBL3611975, “New carbocyclic N(6)-substituted adenine and pyrimidine nucleoside analogues with a bicyclo[2.2.1]heptane fragment as sugar moiety; synthesis, antiviral, anticancer activity and X-ray crystallography” (Bioorg Med Chem, 2015)
